Usually EC50 stands for the concentration giving half of the maximal effect.

Test [1] has as its target T1, α4&β4 20:1 (Homo sapiens, UniProt P43681+Q8R493, P43681:W622F).
T1 construct: gene CHRNA4; full coding regions, cRNA 20:1 alpha:beta in Xenopus oocytes, pentamer 3alpha:2beta, mixed species
Description: two-electrode voltage clamp, potentiation of ACh current, Hill fit. In kind it is cell-based. Conditions: with ACh giving about 5-7% of maximal; pH 7.3, Ba2+ saline; allosteric potentiator; paper urges circumspection (solubility, block at high concentrations).

For test [2], the target named is T2, α4&β4 20:1 (Homo sapiens, UniProt P43681+Q8R493).
T2 construct: gene CHRNA4; full coding regions, cRNA 20:1 alpha:beta in Xenopus oocytes, pentamer 3alpha:2beta, mixed species
T2 sequence (P43681 27-627): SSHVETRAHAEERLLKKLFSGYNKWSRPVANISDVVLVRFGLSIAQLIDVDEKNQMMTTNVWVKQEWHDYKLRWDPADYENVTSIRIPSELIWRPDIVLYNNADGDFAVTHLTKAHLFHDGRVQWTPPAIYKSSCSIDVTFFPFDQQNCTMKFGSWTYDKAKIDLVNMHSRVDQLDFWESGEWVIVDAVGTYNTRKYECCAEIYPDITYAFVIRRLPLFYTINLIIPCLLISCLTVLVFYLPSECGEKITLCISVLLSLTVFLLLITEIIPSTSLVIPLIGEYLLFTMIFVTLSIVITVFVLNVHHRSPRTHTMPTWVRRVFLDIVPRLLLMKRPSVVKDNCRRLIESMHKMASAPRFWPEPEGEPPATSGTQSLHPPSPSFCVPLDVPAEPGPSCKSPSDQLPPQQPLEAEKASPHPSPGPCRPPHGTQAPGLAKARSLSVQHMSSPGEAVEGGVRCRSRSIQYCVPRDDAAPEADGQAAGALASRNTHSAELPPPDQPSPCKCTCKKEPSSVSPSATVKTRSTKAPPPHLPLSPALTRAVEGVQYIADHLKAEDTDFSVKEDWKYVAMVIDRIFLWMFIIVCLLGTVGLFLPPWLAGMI
T2 sequence (Q8R493 21-495): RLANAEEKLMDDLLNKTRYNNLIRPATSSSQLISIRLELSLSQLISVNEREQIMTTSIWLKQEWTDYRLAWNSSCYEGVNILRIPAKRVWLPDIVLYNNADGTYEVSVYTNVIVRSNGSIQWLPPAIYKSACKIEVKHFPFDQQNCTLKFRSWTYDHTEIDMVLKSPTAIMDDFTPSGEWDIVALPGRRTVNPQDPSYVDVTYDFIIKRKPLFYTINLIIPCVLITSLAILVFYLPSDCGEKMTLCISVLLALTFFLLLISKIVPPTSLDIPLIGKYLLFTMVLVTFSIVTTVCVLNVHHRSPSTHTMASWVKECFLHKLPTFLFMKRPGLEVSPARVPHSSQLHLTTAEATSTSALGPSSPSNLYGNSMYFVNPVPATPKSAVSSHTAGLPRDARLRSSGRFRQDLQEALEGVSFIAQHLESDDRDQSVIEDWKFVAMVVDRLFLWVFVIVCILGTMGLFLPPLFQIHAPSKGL
The description is as above. In kind it is cell-based. Conditions: with ACh giving about 5-7% of maximal; pH 7.3, Ba2+ saline; allosteric potentiator; paper urges circumspection (solubility, block at high concentrations).

The test system of test [3] is T3, α4(F)(α2DtoA+E)&β4.
T3 construct: gene CHRNA4; cRNA 20:1, oocytes, 3alpha:2beta
The test is described as follows: two-electrode voltage clamp, agonist activation, Hill fit. In kind it is cell-based, Homo sapiens; Mus musculus. Conditions: no steroid, pH 7.3, Ba2+ saline, cRNA 20:1, read-out: ACh EC50.

Test [4] concerns T4, α(4.4.2.F)&β2.
T4 construct: gene CHRNA4; one alpha polypeptide: alpha4 to D(571)RIFL, alpha2 TM4, tail FLAGMI; with wild-type beta2, cRNA 8:1, oocytes, 3alpha:2beta
The test is described as above. It counts as cell-based, Homo sapiens; Mus musculus. Conditions: no steroid, pH 7.3, Ba2+ saline, cRNA 8:1, read-out: ACh EC50. From the text: two-electrode voltage clamp, agonist activation, Hill fit on α(4.4.2.F)&β2

Test [5] concerns T5, α(2.2.4.W)&β2.
T5 construct: gene Chrna2; one alpha polypeptide: alpha2 to start of TM4, alpha4 TM4, tail WLAGMI; with wild-type beta2, cRNA 8:1, oocytes, 3alpha:2beta
Described as above. It counts as cell-based, Mus musculus; Homo sapiens. Conditions: no steroid, pH 7.3, Ba2+ saline, cRNA 8:1, read-out: ACh EC50. The source says:
two-electrode voltage clamp, agonist activation, Hill fit on α(2.2.4.W)&β2

Test [6] deals with T6, α(2.2.4.W)&β2(WLAGMI).
T6 construct: gene Chrna2
Described as above. It counts as cell-based, Mus musculus; Homo sapiens. Conditions: no steroid, pH 7.3, Ba2+ saline, cRNA 8:1, read-out: ACh EC50. From the text: two-electrode voltage clamp, agonist activation, Hill fit on α(2.2.4.W)&β2(WLAGMI)

Test [7] has as its system T7, α4(α2DtoA)&β4.
T7 construct: gene CHRNA4; cRNA 20:1, oocytes, 3alpha:2beta
Described as above. It counts as cell-based, Homo sapiens; Mus musculus. Conditions: no steroid, pH 7.3, Ba2+ saline, cRNA 20:1, read-out: ACh EC50.

Test [8] has as its target T8, α4&β4 1:10 (Homo sapiens, UniProt P43681+Q8R493).
T8 construct: gene CHRNA4; full coding regions, cRNA 1:10 alpha:beta in Xenopus oocytes
Described as above. It counts as cell-based. Conditions: read-out: ACh EC50.

The subject of test [9] is T9, α2(W)(α4DtoA)&β4.
T9 construct: gene Chrna2; one alpha polypeptide: alpha2(W) carrying alpha4 MMT(57)-IVL(97); cRNA 20:1, oocytes, 3alpha:2beta
The description is as above. It counts as cell-based, Mus musculus; Homo sapiens. Conditions: no steroid, pH 7.3, Ba2+ saline, cRNA 20:1, read-out: ACh EC50. From the text:
two-electrode voltage clamp, agonist activation, Hill fit on α2(W)(α4DtoA)&β4

The test system of test [10] is T10, α(4.4.2.W)&β4.
T10 construct: gene CHRNA4; one alpha polypeptide: alpha4 to D(571)RIFL, alpha2 TM4, tail WLAGMI (W as in alpha4); cRNA 20:1, oocytes, 3alpha:2beta
The test is described as above. In kind it is cell-based, Homo sapiens; Mus musculus. Conditions: no steroid, pH 7.3, Ba2+ saline, cRNA 20:1, read-out: ACh EC50. The source says:
two-electrode voltage clamp, agonist activation, Hill fit on α(4.4.2.W)&β4

Test [11] deals with T11, α(4.4.2.F)&β2(WLAGMI).
T11 construct: gene CHRNA4
The description is as above. In kind it is cell-based, Homo sapiens; Mus musculus. Conditions: no steroid, pH 7.3, Ba2+ saline, cRNA 8:1, read-out: ACh EC50. From the text:
two-electrode voltage clamp, agonist activation, Hill fit on α(4.4.2.F)&β2(WLAGMI)

Test [12] deals with T12, α4&β4 20:1 (Homo sapiens, UniProt P43681+Q8R493, P43681:W622K).
T12 construct: gene CHRNA4
T12 sequence (P43681 27-627 W622K): as the sequence (P43681 27-627) above, with W596K counted along it
T12 sequence (Q8R493 21-495): as the sequence (Q8R493 21-495) above
The test is described as follows: cell-based. From the text: (§1) two-electrode voltage clamp, agonist activation, Hill fit on α4&β4 20:1

For test [13], the target named is T13, α4&β4 20:1 (Homo sapiens, UniProt P43681+Q8R493, P43681:L623W/P43681:W622F).
T13 construct: gene CHRNA4
T13 sequence (P43681 27-627 W622F/L623W): as the sequence (P43681 27-627) above, with W596F, L597W counted along it
T13 sequence (Q8R493 21-495): as the sequence (Q8R493 21-495) above
The test is described as follows: cell-based.
From the text: as §1

In test [14] the test system is T14, α(4.2.2.F)&β4.
T14 construct: gene CHRNA4; alpha4 and alpha2 parts are one polypeptide: alpha4 N-terminus to V(210)IRRLP, rest alpha2 (TM1-TM3 identical), tail FLAGMI; cRNA 20:1, oocytes, 3alpha:2beta
Description: two-electrode voltage clamp, agonist activation, Hill fit. It counts as cell-based, Homo sapiens; Mus musculus. Conditions: no steroid, pH 7.3, Ba2+ saline, cRNA 20:1, read-out: ACh EC50. From the text: two-electrode voltage clamp, agonist activation, Hill fit on α(4.2.2.F)&β4
Background: Two-electrode voltage clamp is typically applied to oocytes expressing channels or transporters.

The test system of test [15] is T15, α(2.2.4.W)&β4.
T15 construct: gene Chrna2; alpha2 to start of TM4 and alpha4 TM4 are one polypeptide, tail WLAGMI; cRNA 20:1, oocytes, 3alpha:2beta
Described as above. In kind it is cell-based, Mus musculus; Homo sapiens. Conditions: no steroid, pH 7.3, Ba2+ saline, cRNA 20:1, read-out: ACh EC50. From the text: two-electrode voltage clamp, agonist activation, Hill fit on α(2.2.4.W)&β4

The subject of test [16] is T7, α4(α2DtoA)&β4. The test is described as above. In kind it is cell-based, Homo sapiens; Mus musculus. Conditions: no steroid, pH 7.3, Ba2+ saline, cRNA 20:1, read-out: ACh EC50. The source holds these as a separate data set.
Test [17] deals with T16, α(2.4.4.W)&β4.
T16 construct: gene Chrna2; alpha2 N-terminal domain and alpha4 remainder are one polypeptide, tail WLAGMI; cRNA 20:1, oocytes, 3alpha:2beta
The description is as above. Conditions: no steroid, pH 7.3, Ba2+ saline, cRNA 20:1, read-out: ACh EC50. It counts as cell-based, Mus musculus; Homo sapiens. The source says: two-electrode voltage clamp, agonist activation, Hill fit on α(2.4.4.W)&β4

Test [18] has as its system T17, α(4.4.2.F)&β4.
T17 construct: gene CHRNA4; alpha4 and alpha2 parts are one polypeptide: alpha4 to D(571)RIFL, alpha2 TM4, tail FLAGMI; cRNA 20:1, oocytes, 3alpha:2beta
The description is as above. It counts as cell-based, Homo sapiens; Mus musculus. Conditions: no steroid, pH 7.3, Ba2+ saline, cRNA 20:1, read-out: ACh EC50. The source says:
two-electrode voltage clamp, agonist activation, Hill fit on α(4.4.2.F)&β4

Like-named read-outs stand apart in the source and are kept apart here.

T1 sequence (P43681 27-627 W622F): as the sequence (P43681 27-627) above, with W596F counted along it
T1 sequence (Q8R493 21-495): as the sequence (Q8R493 21-495) above
T8 sequence (P43681 27-627): as the sequence (P43681 27-627) above
T8 sequence (Q8R493 21-495): as the sequence (Q8R493 21-495) above

Take “19-norpregna-1,3,5(10)-trien-20-yne-3,17-diol, (17α)-(9CI) [17α-vinyl estradiol]”: the figures for the EC50 in test [1] and in test [2] were 7.32 ± 0.68 µM and 3.84 ± 0.27 µM, respectively.
As to `CC(=O)OCC[N+](C)(C)C` [acetylcholine chloride], the EC50 in [3] stood at 16 ± 2 µM; in test [4], […]; in [5], […]; in test [6], […]; in test [7] it was […]; in test [8] it was 14 ± 2.4 µM. Also, the EC50 in [9] was determined as […]; in [10] it was […]; in test [11], […]; in test [12] it was 14 ± 2 µM; in [13], 14 ± 1 µM; in test [14], […]. In addition, the EC50 in test [15] turned out to be […]; in [16] it was 73 ± 4 µM; in test [17] it was […]; in test [18], […].
